Experimental data taken from ChEMBL document CHEMBL1201862, “PubChem BioAssay data set” (2004).
Active and inactive are the calls of the source. Numbered stars: 1 amine (or outer) side, 2 acyl side, 3 side chain; on linkers, the order of the positions; unused ones are H or OH. Square brackets hold non-standard residues; d marks the D form. Peptide text beside a SMILES is read from it. ξ: configuration not given here. ξR = N=C(N)NCCCC(N)C(=O)O; ξF = NC(Cc1ccccc1)C(=O)O; CO = O=C([*:1])[*:2]

Tests used:
[1] = ZM109 Env clade C HIV-1 fusion inhibitors, dose response, HeLa effector, CEM target cells, luciferase, cherry-pick (AID 652058); assay type: functional, cell-based
[2] = off-target signal loss in HeLa-CEM21 co-culture – HeLa F-luc CTL cells, cherry-picked, counter-screen for HIV-1 Env fusion inhibitor project, dose response (AID 652040); assay type: functional, cell-based;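 further: potency for signal decrease marking cytotoxic or nonspecific inhibition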
[3] = inhibitors of HIV Env-driven cell fusion, dose response, cherry-pick (AID 652057); assay type: functional, cell-based
[4] = inhibitors of clade B AD8 Env fusion, dose response, cell-based, cherry-pick (AID 652062); assay type: functional;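 further: luciferase signal from cell-cell fusion driven by HIV-1 clade B AD8 Env; potency is for inhibitors of fusion seen as a drop in luminescence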
[5] = CEM21 lymphoblast cell cytotoxicity, dose response, cytotoxicity control for viral fusion inhibitor project, CellTiter-Glo luminescence, cherry-picked (AID 652042); assay type: functional, cell-based;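 further: potency for signal decrease meaning cytotoxicity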
Beta-galactosidase = Beta-galactosidase (Escherichia coli, UniProt Q8VNN2); experiment: PubChem AID 485352; assay type: functional
Sequence of Beta-galactosidase (Q8VNN2 whole entry): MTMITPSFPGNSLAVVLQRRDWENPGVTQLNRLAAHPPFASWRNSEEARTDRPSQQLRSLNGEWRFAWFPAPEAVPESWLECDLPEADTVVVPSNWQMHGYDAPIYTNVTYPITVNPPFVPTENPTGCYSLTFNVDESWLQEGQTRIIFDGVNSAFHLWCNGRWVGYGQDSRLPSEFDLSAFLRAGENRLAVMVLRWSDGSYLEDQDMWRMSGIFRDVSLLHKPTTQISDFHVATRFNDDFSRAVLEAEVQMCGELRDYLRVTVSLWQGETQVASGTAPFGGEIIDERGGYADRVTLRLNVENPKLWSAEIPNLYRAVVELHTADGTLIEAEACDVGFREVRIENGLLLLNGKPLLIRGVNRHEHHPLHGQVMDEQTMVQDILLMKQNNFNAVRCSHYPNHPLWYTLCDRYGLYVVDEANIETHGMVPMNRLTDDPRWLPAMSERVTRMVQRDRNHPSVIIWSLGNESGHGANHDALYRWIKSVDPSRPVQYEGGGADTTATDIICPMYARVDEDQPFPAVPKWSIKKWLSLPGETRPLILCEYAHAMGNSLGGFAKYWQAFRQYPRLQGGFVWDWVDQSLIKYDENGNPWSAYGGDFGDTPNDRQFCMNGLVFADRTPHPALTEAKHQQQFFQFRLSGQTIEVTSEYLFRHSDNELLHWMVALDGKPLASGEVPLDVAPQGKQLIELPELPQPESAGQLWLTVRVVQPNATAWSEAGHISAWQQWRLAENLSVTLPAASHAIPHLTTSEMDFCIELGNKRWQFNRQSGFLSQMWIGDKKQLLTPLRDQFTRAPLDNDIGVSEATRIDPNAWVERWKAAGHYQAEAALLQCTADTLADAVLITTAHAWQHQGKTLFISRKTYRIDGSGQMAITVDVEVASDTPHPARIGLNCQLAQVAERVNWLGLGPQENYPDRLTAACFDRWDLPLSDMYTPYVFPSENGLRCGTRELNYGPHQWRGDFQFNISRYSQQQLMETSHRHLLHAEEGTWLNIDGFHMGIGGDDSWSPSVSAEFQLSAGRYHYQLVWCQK

[6] = molecular target: T1, Latent membrane protein 1 (Human herpesvirus 4 (strain B95-8), UniProt P03230); experiment: TES1-eGFP NF-kB reporter inhibition versus Tet-On dsRED, dose response, selectivity assay for LMP1 NF-kB inhibitor project, imaging, HEK293T, dual-color eGFP/dsRED, cherry-picks (AID 588398); assay type: functional, cell-based
T1 sequence (P03230 whole entry): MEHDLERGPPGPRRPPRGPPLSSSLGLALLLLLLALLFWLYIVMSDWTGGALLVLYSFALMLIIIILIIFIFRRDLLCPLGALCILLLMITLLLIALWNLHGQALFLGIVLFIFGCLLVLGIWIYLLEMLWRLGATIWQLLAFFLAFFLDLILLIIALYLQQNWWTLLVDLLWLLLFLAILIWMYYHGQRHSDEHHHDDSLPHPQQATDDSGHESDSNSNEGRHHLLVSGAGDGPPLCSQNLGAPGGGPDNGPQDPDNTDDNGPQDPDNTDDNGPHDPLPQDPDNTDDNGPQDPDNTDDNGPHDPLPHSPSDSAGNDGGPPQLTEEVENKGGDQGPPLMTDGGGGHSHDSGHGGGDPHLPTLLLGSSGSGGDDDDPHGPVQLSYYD

[7] = molecular target: T2, Type-1 angiotensin II receptor (Homo sapiens, UniProt P30556); experiment: AT1 receptor antagonists, dose response, selectivity assay for APJ receptor antagonist project, cell-based, uHTS hits (AID 463214); assay type: functional;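 further: antagonist potency against angiotensin II stimulated AT1 response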
T2 sequence (P30556 whole entry): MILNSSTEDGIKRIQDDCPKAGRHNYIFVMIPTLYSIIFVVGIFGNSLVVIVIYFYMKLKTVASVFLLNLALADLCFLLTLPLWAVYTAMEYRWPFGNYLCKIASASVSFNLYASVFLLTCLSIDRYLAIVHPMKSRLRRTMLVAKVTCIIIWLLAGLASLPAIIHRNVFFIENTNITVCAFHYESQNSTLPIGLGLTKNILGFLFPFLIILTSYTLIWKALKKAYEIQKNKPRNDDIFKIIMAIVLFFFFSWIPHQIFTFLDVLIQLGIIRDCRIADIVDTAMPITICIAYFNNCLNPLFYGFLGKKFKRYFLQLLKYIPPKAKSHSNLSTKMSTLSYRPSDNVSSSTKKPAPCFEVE

Cytochrome P450 2C9 = Cytochrome P450 2C9 (Homo sapiens, UniProt P11712)
Sequence of Cytochrome P450 2C9 (P11712 whole entry): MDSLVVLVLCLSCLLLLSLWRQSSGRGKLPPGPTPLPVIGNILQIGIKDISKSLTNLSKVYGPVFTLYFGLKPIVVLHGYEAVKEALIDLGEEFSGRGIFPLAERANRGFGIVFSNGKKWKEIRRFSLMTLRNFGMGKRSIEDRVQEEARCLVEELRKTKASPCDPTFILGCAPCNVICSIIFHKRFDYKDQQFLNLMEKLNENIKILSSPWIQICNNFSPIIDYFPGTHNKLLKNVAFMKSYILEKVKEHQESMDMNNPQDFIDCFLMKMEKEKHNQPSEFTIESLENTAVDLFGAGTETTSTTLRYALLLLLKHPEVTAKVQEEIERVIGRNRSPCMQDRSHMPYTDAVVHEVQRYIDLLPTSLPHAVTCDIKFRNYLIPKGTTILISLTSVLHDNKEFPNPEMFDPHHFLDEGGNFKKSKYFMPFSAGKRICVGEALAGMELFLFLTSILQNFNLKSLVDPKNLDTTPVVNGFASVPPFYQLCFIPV

HEK293 = experiment: inhibitors of LMP1-driven NF-kB reporter, dose response, cell-based, HEK293, luciferase, cherry-pick (AID 588343); assay type: functional; details: Homo sapiens
Vero = experiment: cells; assay type: functional, cell-based; details: Chlorocebus sabaeus
[8] = molecular target: T3, Short transient receptor potential channel 4 (Mus musculus, UniProt Q9QUQ5); experiment: mouse TRPC4 channel inhibitors, dose response, cell-based, HEK293 TRPC4/mu-opioid, Fluo-4 calcium (AID 434942); assay type: functional;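 further: potency of inhibitors blocking the TRPC4 calcium response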
T3 sequence (Q9QUQ5 whole entry): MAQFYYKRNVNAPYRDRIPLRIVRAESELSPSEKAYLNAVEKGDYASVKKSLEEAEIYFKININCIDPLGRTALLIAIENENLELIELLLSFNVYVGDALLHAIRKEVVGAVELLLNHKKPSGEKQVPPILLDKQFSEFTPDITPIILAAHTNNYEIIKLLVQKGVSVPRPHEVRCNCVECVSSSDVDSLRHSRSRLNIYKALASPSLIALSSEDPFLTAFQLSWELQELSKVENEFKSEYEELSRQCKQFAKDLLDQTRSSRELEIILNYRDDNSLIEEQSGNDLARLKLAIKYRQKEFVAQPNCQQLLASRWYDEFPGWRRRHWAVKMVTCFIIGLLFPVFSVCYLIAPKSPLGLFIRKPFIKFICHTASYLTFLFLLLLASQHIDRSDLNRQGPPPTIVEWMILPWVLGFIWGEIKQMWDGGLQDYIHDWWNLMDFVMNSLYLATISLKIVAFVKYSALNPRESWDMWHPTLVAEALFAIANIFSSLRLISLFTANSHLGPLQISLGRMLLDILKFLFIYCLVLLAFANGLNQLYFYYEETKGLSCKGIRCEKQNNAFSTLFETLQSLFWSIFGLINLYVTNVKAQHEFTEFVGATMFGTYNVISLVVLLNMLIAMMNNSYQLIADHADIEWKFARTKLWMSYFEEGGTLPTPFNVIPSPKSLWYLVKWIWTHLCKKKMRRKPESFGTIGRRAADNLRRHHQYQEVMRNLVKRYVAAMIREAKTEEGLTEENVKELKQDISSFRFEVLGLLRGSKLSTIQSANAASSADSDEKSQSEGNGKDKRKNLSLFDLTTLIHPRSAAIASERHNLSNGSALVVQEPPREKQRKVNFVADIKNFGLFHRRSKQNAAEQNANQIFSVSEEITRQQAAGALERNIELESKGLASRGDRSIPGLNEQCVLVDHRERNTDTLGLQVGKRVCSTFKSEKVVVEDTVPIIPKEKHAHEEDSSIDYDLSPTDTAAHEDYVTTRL

[9] = molecular target: T3, Short transient receptor potential channel 4; experiment: mouse TRPC4 channel activators, dose response, cell-based, HEK293 TRPC4/mu-opioid, Fluo-4 calcium (AID 434937); assay type: functional
[10] = Luminescence Cell-Based Dose Retest to Confirm Inhibitors of Cancer Stem Cells. [Related pubchem assays (depositor defined):AID2717, AID2721]; assay type: functional; details: Homo sapiens
Coagulation factor XII = molecular target: T4, Coagulation factor XII (Homo sapiens, UniProt P00748); assay type: functional;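 further: activated factor XIIa alpha cleaving a fluorogenic AMC peptide substrate; inhibitor potency from loss of enzyme activity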
T4 sequence (P00748 whole entry): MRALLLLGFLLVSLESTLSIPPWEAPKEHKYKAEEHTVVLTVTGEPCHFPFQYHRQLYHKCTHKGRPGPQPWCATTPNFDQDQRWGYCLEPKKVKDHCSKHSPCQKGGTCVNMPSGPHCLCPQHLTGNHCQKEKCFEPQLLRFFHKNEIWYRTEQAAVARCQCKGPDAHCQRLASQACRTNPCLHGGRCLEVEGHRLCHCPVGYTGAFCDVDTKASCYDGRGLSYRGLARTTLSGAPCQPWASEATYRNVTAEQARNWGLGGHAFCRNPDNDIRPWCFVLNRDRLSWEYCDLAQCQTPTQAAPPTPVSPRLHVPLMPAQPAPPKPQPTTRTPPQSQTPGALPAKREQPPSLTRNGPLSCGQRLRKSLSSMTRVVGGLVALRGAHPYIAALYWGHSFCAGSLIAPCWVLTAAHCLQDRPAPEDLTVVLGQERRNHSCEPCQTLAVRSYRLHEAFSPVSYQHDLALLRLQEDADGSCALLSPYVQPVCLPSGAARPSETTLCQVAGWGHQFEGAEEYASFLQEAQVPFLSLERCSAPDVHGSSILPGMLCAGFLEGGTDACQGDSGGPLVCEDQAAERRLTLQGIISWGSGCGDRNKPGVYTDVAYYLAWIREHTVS

CCCCN1C(=O)C(O)(c2ccccc2)c2cc(Br)ccc21 (centres undefined)
AC50 [1]: 4.73 µM (active)
AC50 [2]: 6.01 µM (active)
AC50 [3]: 4.89 µM (active)
AC50 [4]: 7.82 µM (active)
AC50 [5]: 48.2 µM (active)

COc1cc(OC)cc(C(=O)N[C@H](C(=O)OCC(=O)c2ccc(C)c([N+](=O)[O-])c2)C(C)C)c1
EC50 (Beta-galactosidase): > 40 µM (inactive)
AC50 [6]: 42.8 µM (active)
IC50 [7]: > 40 µM (not active)

NC(=O)c1nn(-c2ccccc2)c(=O)cc1O
AC50 (Cytochrome P450 2C9): inconclusive

COc1cc2c(=O)n(CC3CCCO3)c(=O)n(CC(=O)Nc3cccc(Cl)c3)c2cc1OC (centres undefined)
AC50 (HEK293): 84.3 µM (active)
AC50 [6]: 277 µM (active)

CNc1cccnc1C=NNC(N)=S
AC50 [1]: 0.805 µM (active)
AC50 (HEK293): 2.43 µM (active)
AC50 [2]: 9.89 µM (active)
AC50 [3]: 0.457 µM (active)
AC50 [6]: 6.42 µM (active)
AC50 [4]: 1.94 µM (active)
AC50 [5]: 5.69 µM (active)

OC1(c2cccs2)C[N+](c2ccc(Cl)cc2)=C2CCCCN21 (centres undefined)
IC50 (Vero): 8.4 µM (active)
EC50 [8]: 2.66 µM (active)

O=C(NC1CCCc2ccccc21)c1ccc(O)nc1 (centres undefined)
AC50 (Cytochrome P450 2C9): inconclusive

COC(=O)[C@]12C[C@H](CC(=O)NCc3cccs3)C(=O)N(CCC3=CCCCC3)C1=C[C@H](C(C)(C)C)O[C@@H]2C
AC50 [1]: 1.91 µM (active)
AC50 [2]: 1.72 µM (active)
AC50 [3]: 1.18 µM (active)
AC50 [4]: 5.01 µM (active)
AC50 [5]: 51.6 µM (active)

O=C(N/N=C/c1cccnc1)c1ccccc1OCc1ccc(Cl)cc1
EC50 [9]: 3.35 µM (active)
EC50 [8]: 1.5 µM (active)

CN1CCN(/N=C/c2ccc(N(c3ccccc3)c3ccccc3)cc2)CC1
AC50 [10]: 5.11 µM (active)
AC50 (HEK293): 0.907 µM (active)
AC50 [6]: 0.147 µM (active)

O=C(c1ccco1)C(O)c1ccco1 (centres undefined)
EC50 (Beta-galactosidase): > 40 µM (inactive)
IC50 [7]: 35.2 µM (not active)

CC(C)[C@H](NC(=O)[C@H](CCCN=C(N)N)NC(=O)NC(Cc1ccccc1)C(=O)O)C(=O)NC(C=O)CCCN=C(N)N (stereo partly drawn) ({ξF-CO}-Arg-Val-[ξR]-aldehyde)
IC50 (Coagulation factor XII): 5.87 µM (active)
